Results from patent publication US7323188B2 (priority 1997, dated 2008).
Several values for one entry are separate records, joined by “and”; a condition that tells them apart may be missing. Identical values can stand only once. Like-named read-outs stand apart in the source and are kept apart here.

Assays:
Details in all cases: in vivo
[1] = test system: downy mildew (Pseudoperonospora cubensis)
[2] = test system: downy mildew (Pseudoperonospora cubensis); remark: listed apart in the source
[3] = test system: downy mildew (Pseudoperonospora cubensis); remark: listed apart in the source
[4] = test system: late blight (Phytophthora infestans)
[5] = test system: downy mildew (Pseudoperonospora cubensis); remark: listed apart in the source
[6] = test system: downy mildew (Pseudoperonospora cubensis); remark: listed apart in the source
[7] = test system: late blight (Phytophthora infestans); remark: listed apart in the source

SMILES	Incidence rate [2]	Incidence rate [6]	Incidence rate [1]	also measured
CO/C=C(/C(=O)OC)c1ccccc1Oc1cc(Oc2ccccc2C#N)ncn1 [Compound (a), methyl (E)-2-{2-[6-(2-cyanophenoxy)pyrimidin-4-yloxy]phenyl}-3-methoxyacrylate]	–	–	–	Theoretical incidence rate (Colby's formula) [1]: 100 (100) %
Cc1ccc(-c2c(Cl)nc(C#N)n2S(=O)(=O)N(C)C)cc1 [Compound No. 1, 4-chloro-2-cyano-1-dimethylsulfamoyl-5-(4-methylphenyl)imidazole]	85% and 90%	–	–	Incidence rate [3]: 87% and 95%; Incidence rate [4]: 47% and 50% and 31% and 37%; Lesion-free Area Ratio [5]: 65%
O=P([O-])([O-])O.[K+].[K+] [K2HPO4, dipotassium hydrogenphosphate]	95%	95%	–	–
COCC(=O)N(c1c(C)cccc1C)C(C)C(=O)OC (racemic) [Metalaxyl, methyl N-(2-methoxyacetyl)-N-(2,6-xylyl)-DL-alaninate]	–	–	60% and 100%	–
CO/N=C(/C(=O)OC)c1ccccc1COc1ccccc1C [Compound (b), methyl (E)-methoxyimino[α-(o-tolyloxy)-O-tolyl]acetate]	–	–	100%	–
O=P([O-])([O-])O.[Na+].[Na+] [Na2HPO4, disodium hydrogenphosphate]	100%	100%	–	–
CCNC(=O)NC(=O)C(C#N)=NOC [Cymoxanil, 1-(2-cyano-2-methoxyiminoacetyl)-3-ethylurea]	–	–	–	Incidence rate [7]: 100%
OP(O)O [H2(PO3H), phosphorous acid]	75%	75%	–	–
COc1ccc(C(=CC(=O)N2CCOCC2)c2ccc(Cl)cc2)cc1OC [Dimethomorph, (E,Z)-4-[(3-(4-chlorophenyl)-3-(3,4-dimethoxyphenyl)acryloyl]morpholine]	–	–	50% and 60%	Incidence rate [7]: 85% and 100%
